Reference: article PMC9949698, “Visible-Light-Controlled Histone Deacetylase Inhibitors for Targeted Cancer Therapy” (Journal of Medicinal Chemistry, 2023)
Read-outs that look alike come from different tables or passages of the source.

Tests used:
human recombinant HDAC1 [1] = target: T1, human recombinant HDAC1 (Homo sapiens, UniProt Q13547); experiment: Fluorogenic assay with human recombinant HDAC1, dark or illumination; assay type: biochemical; conditions: for IC50: 1 h at room temperature (Table 2)
T1 construct: purchased BPS Bioscience
T1 sequence (Q13547 whole entry): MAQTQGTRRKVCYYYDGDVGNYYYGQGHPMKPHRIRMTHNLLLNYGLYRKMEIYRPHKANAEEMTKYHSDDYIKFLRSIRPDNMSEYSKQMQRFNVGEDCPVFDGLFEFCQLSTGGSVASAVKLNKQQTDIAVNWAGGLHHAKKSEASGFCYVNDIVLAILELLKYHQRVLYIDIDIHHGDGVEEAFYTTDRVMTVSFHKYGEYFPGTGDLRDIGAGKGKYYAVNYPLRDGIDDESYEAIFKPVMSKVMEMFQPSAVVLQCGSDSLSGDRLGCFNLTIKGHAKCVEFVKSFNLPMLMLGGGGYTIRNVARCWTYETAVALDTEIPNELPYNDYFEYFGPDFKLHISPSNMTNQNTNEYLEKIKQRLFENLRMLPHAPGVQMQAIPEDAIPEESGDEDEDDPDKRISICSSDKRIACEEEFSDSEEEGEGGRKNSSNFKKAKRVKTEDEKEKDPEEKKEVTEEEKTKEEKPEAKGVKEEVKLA
Description: To study the inhibition of HDAC enzymes by the compounds, we used a fluorogenic assay with human recombinant HDAC1.[32] The enzyme was incubated with an acetylated substrate and each inhibitor for 1 h at room temperature, under either dark or light conditions. We opted for illumination throughout the incubation period to maintain the maximum proportion of cis under light conditions. […] Then, the deacetylated substrate generated a fluorescent coumarin after incubation of the mixture with trypsin at 37 °C for 20 min.
Stock solutions of the compounds were diluted to 1 mM in DMSO and then heated to 60 or 80 °C to obtain solutions with the maximum amount of the trans isomer (dark). […] The 1 mM solutions were then serially diluted with HDAC buffer to 10 times the desired concentration, maintaining DMSO at 10%.
In control wells without the compound, inhibitor, or enzyme, HDAC buffer was added instead. […] Then, 50 μL of the stop solution was added and the plates were incubated at 37 °C for 20 min in the dark. Fluorescence was measured at a λem of 460 nm and a λex of 380 nm. Enzyme activity is expressed as a percentage with respect to the nontreated cells, after subtracting the blank (well with no enzyme and no compound).

[2] = UV–vis spectra and optimal isomerization wavelengths; assay type: physicochemical
Description: Ultraviolet–visible (UV–vis) spectra were recorded using a Tecan Spark 20M Multimode Microplate reader. Samples (200 μL of compound solution/well) were prepared at […] in DMSO. Samples were measured between 300 and 800 nm with 2 nm fixed intervals in 96-well transparent plates. Illumination at different wavelengths was performed for 2 min using 96-well LED array plates (LEDA Teleopto) placed below the samples. […] Potencies were measured using a Thorlabs PM100D power energy meter connected with a standard photodiode power sensor (S120VC).

human recombinant HDAC1 [3] = target: T1, human recombinant HDAC1; experiment: Fluorogenic assay with human recombinant HDAC1, dark or illumination; assay type: biochemical; conditions: enzyme incubated 6 h with or without preillumination, activity assessed every hour
HeLa cells = experiment: HeLa cell viability, MTS assay, dark or preillumination; assay type: cell-based; conditions: for IC50: Homo sapiens, HeLa
Description: We then proceeded to evaluate the effect of the compounds in a viability assay against HeLa cells.
HeLa, MCF7, and HT29 cells were maintained in adherent cultures in DMEM supplemented with 10% FBS. KG1 cells were maintained in a suspension culture in IMDM supplemented with 20% FBS.
Stock solutions of the compounds were heated to 60 or 80 °C to obtain solutions with the maximum amount of the trans isomer (dark). […] The solutions were then serially diluted with DMEM to give 20 times the desired final concentration, maintaining DMSO at 10%.
Cells were seeded in 96-well black flat bottom plates with a clear bottom at a density of 5 × 10^3 cells/well (HeLa) or 1 × 10^4 cells/well (MCF7, HT29, and KG1), in a volume of 95 μL.
Viability of HeLa, MCF7, and […] cells was determined with a CellTiter 96 assay (Promega), according to the manufacturer’s instructions. Briefly, 20 μL of CellTiter 96 reagent was added to each well, the plates were incubated at 37 °C for 2 h, and the absorbance at 490 nm was recorded. Viability is expressed as a percentage with respect to the nontreated cells.

[4] = E/Z composition under light or temperature conditions by HPLC; assay type: physicochemical; conditions: HPLC at isosbestic point (310–338 nm)
[5] = cited from earlier work
[6] = UV–vis at 25–50 μM in DMSO, Teleopto plates (Table 1)

IC50(dark)/IC50(light) (human recombinant HDAC1 [1]; dark vs 365 or 380 nm (Table 2), fold): 18
IC50 (human recombinant HDAC1 [1]; dark, read-out: IC50 dark): 0.96 µM
IC50 (human recombinant HDAC1 [1]; illumination 365 or 380 nm, read-out: IC50 light): 0.052 µM
λcis (optimal wavelength trans to cis) [2, 6]: 380 nm
λtrans (optimal wavelength cis to trans) [2, 6]: 550 nm
λmax trans ([2]; UV–vis spectra at 25–50 μM in DMSO (Table 1)): 378 nm
difference in activity between dark and illuminated conditions over incubation time (human recombinant HDAC1 [3]): maintained over time
IC50 (HeLa cells; dark, 48 h, read-out: IC50 dark (concentration that reduces cell viability by half)): ~12 µM
IC50 (HeLa cells; preillumination 380 nm, 48 h, read-out: IC50 light (concentration that reduces cell viability by half)): ~12 µM
IC50 (HeLa cells; supplementary CSV, read-out: HeLa MTS IC50 dark): 12 µM
IC50 (HeLa cells; supplementary CSV, read-out: HeLa MTS IC50 light): 12 µM
IC50(dark)/IC50(light) (HeLa cells; Table 5): ≈1
% cis at λcis ([4]; 100 μM in DMSO after illumination with λcis (Table 1)): 78%
% trans at λtrans ([4]; 100 μM in DMSO after illumination with λtrans (Table 1)): 85%
Structure (SMILES): COc1ccc(/N=N/c2ccc(/C=C/C(=O)NO)cc2)cc1 [Compound 1, reference compound]
wavelength of isomerization [5]: 365 nm
t1/2 (relaxation) ([5]; room temperature in buffer): 4.2 h
